From publication PMC7738871, “Covalent modification of Keap1 at Cys77 and Cys434 by pubescenoside a suppresses oxidative stress-induced NLRP3 inflammasome activation in myocardial ischemia-reperfusion injury” (Theranostics, 2021) come the findings set out here.

The structures appear in SMILES notation.

In experiment [1] the test system is OGD/R-induced H9c2 cells. Briefly: OGD/R-induced injury, MTT viability, H9c2. Type of experiment: cell-based, rat. To be noted: 100 μM, compared with PBA. The method, then: For OGD/R treatment, H9c2 cells were washed twice with phosphate buffered saline (PBS). The medium was changed to glucose and serum free DMEM, and H9c2 cells were incubated in an incubator with 95% N2 and 5% CO2 at 37 °C. After 6 h, the medium was replaced with DMEM containing 10% FBS and 1% PS. Then H9c2 cells were returned to a normal incubator with 5% CO2 balanced with air at 37 °C for the indicated time.
Cell viability was determined by MTT assays. PBA was prepared to a stock solution dissolved in dimethyl sulfoxide (DMSO). RAW264.7, H9c2 cells, primary mouse cardiomyocytes were treated with different doses of PBA, and DMSO only as control for 48 h for the toxicity. In addition, H9c2 cells or primary mouse cardiomyocytes were treated with the indicated doses of PBA, diazoxide as positive control, DMSO only as control, then cultured with or without OGD/R treatment. At the end of the experiments, MTT was added into each well at the concentration of 0.5 mg/ml, and incubated at 37 °C for 4 h. After removal of the supernatant, 150 μL of DMSO was added to solubilize the formazan products. And the solution was measured at the absorbance of 490 nm by a spectrophotometer (Thermo Fisher Scientific, MA, USA). The results of the MTT assay in all groups were normalized to the control group with DMSO only treatment.

Experiment [2] has as its system Keap1-dependent Nrf2 ubiquitination. Briefly: Keap1-dependent Nrf2 ubiquitination in 293T cells. Type of experiment: cell-based, human. The conditions noted are these: WT Keap1, 30 μM PBA 20 h, 5 μM MG132 4 h. The method, then:
Alkylation of the BTB domain of Keap1 by covalent modifiers contributes to the disruption of the Keap1-Cul3 interactions, leading to Nrf2 activation. Next, we investigated the effect of PBA on the modulation of Nrf2 ubiquitination as Nrf2 stability is controlled by ubiquitin-mediated proteasomal degradation. First, 3X Flag-Keap1, Myc-Nrf2 and Ub plasmids were transfected into 293T cells and then, the cells were treated with 30 μM PBA for 20 h and 5 μM MG132 for another 4 h. Cell lysates were pulled down using anti-Myc beads, and immunopurified Nrf2 was examined for the occurrence of Ub by western blotting. […] As shown in Figure 6E-F, PBA could disrupt the interaction of Keap1 and Cul3 in WT-Keap1 cells, while the disruption was blocked in the Cys77S and Cys434-Keap1 mutant cells.
Figure 6 PBA suppresses Keap1-mediated ubiquitination of Nrf2 by disrupting the interaction between Cul3 and Keap1. (A and B) PBA suppressed Nrf2 ubiquitination in a Keap1-Cys77 and C434-dependent manner. First, 293T cells were transfected with WT-Keap1 or C77S and C434S-Keap1, Myc-Nrf2, and Ub plasmids for 24 h and treated with 30 μM PBA. The cell lysates were immunoprecipitated using anti-Myc beads, and the ubiquitination level was evaluated using the anti-Ub antibody. (C and D) PBA induced the dissociation of the Nrf2-Keap1 complex. Then, 293T cells were cotransfected with WT-Keap1 and Flag-Nrf2 plasmids for 24 h and treated with 30 μM PBA for 12 h. The cell lysates were immunoprecipitated with the anti-Flag antibody, and the level of Nrf2 was assessed using the anti-Nrf2 antibody. (E and F) PBA disrupted the interaction between Cul3 and Keap1. […] The cell lysates were immunoprecipitated with the anti-Flag antibody, and the level of Cul3 was measured using the anti-Cul3 antibody. #p < 0.05, ##p < 0.01, ###p < 0.001, the control vs DMSO; *p < 0.05,**p < 0.01, ***p < 0.001, PBA or tBHQ vs DMSO. […] Cell viability was measured by MTT assays. #p < 0.05, ###p < 0.001, the control vs OGD/R; **p < 0.01, ***p < 0.001, OGD/R+PBA vs OGD/R.

The test system of experiment [3] is T1, interaction between Keap1 and Nrf2.
T1 construct: expressed in transfected cells; host or cells: 293T
As to the kind of experiment: Co-IP of Keap1 and Nrf2 in 293T cells. To be noted: WT-Keap1, 30 μM PBA. Type of experiment: cell-based, human. The method, then:
Figure 6 PBA suppresses Keap1-mediated ubiquitination of Nrf2 by disrupting the interaction between Cul3 and Keap1. (A and B) PBA suppressed Nrf2 ubiquitination in a Keap1-Cys77 and C434-dependent manner. First, 293T cells were transfected with WT-Keap1 or C77S and C434S-Keap1, Myc-Nrf2, and Ub plasmids for 24 h and treated with 30 μM PBA. The cell lysates were immunoprecipitated using anti-Myc beads, and the ubiquitination level was evaluated using the anti-Ub antibody. (C and D) PBA induced the dissociation of the Nrf2-Keap1 complex. Then, 293T cells were cotransfected with WT-Keap1 and Flag-Nrf2 plasmids for 24 h and treated with 30 μM PBA for 12 h. The cell lysates were immunoprecipitated with the anti-Flag antibody, and the level of Nrf2 was assessed using the anti-Nrf2 antibody. (E and F) PBA disrupted the interaction between Cul3 and Keap1. The 293T cells were transfected with the WT-Keap1 or C77S-C434S-Keap1 plasmids for 24 h and treated with 30 μM PBA for 12 h. The cell lysates were immunoprecipitated with the anti-Flag antibody, and the level of Cul3 was measured using the anti-Cul3 antibody. #p < 0.05, ##p < 0.01, ###p < 0.001, the control vs DMSO; *p < 0.05,**p < 0.01, ***p < 0.001, PBA or tBHQ vs DMSO. […] Primary mouse cardiomyocytes were transfected with mouse WT-Keap1 or C77S and C434S-Keap1 mutant vectors. After 24 h, the cells were treated with the indicated doses of PBA and subjected to OGD conditions as described in the Method section for 3 h and under normal conditions for another 18 h. Cell viability was measured by MTT assays. #p < 0.05, ###p < 0.001, the control vs OGD/R; **p < 0.01, ***p < 0.001, OGD/R+PBA vs OGD/R.
To investigate the effect of PBA on the interaction of Keap1 and Nrf2, we transfected 293T cells with Flag-Keap1 and Myc-Nrf2 plasmids, and treated them with 30 μM PBA for 24 h. The protein expression of Nrf2 was measured by western blotting analysis followed by immunoprecipitation with Flag beads.

On to `CC1=NS(=O)(=O)c2cc(Cl)ccc2N1` [diazoxide, reference compound], for which the “protective effect against OGD/R induced injury (positive control)” value in experiment [1] is “protective effect of PBA seemed equal to that of 100 μM diazoxide”.

In the case of `CC(C)(C)c1cc(O)ccc1O` [tBHQ, reference compound], the “Keap1-dependent Nrf2 ubiquitination” value in experiment [2] is reported as “significantly suppressed”. Further, the “interaction between Keap1 and Nrf2 (Co-IP)” value in experiment [3] is on record as “did not affect it”.
